Test results taken from patent US8759500B2, “Crystalline forms of a macrolide, and uses therefor” (Cempra Pharmaceuticals, Inc., priority 2010, dated 2014).

Experiments:
[1] = Mean intrinsic dissolution studies; assay type: physicochemical
Source text: Mean intrinsic dissolution rates for exemplary batches of the two forms are shown in Table cC-2 for 3 batches of Form I (SD and % CV for one batch shown) and for Form II.

Dynamic vapor sorption = assay type: physicochemical
Experimental: The new physical form, Form I of CEM-101 is a crystalline form which may be described by its X-ray powder diffraction pattern. Peaks at approximate positions of about °2θ=8.8, 10.5, 13.2 and 18.6 are representative of this crystalline form. A more detailed analysis of the peaks is described in Tables 1-2 below. […] Water determination by Karl Fisher titration in typical lots is 0.6 to 1.1%. […] Form I of CEM-101 melts at about 200° C. by DSC analysis.
The new physical form, Form II of CEM-101 is a crystalline form which may be described by its X-ray powder diffraction pattern. Peaks at approximate positions of about °2θ=5.6, 7.9, 9.3, 11.7, 12.9 and 16.7 are representative of this crystalline form. A more detailed analysis of the peaks is described in Tables 3-4 below. Based on a single crystal X-ray determination and dynamic vapor sorption analysis, Form II appears to be a non-hygroscopic anhydrous crystalline form that melts at about 225° C. as a single endothermic event by DSC analysis. It is appreciated herein that non-hygroscopic solids, such as Form II described herein, may be advantageous in the preparation of pharmaceutical compositions. Such advantages include improved handling and stability properties in manufacturing, improved lot to lot quality control.

CC[C@H]1OC(=O)[C@@](C)(F)C(=O)[C@H](C)[C@@H](O[C@@H]2O[C@H](C)C[C@H](N(C)C)[C@H]2O)[C@](C)(OC)C[C@@H](C)C(=O)[C@H](C)[C@H]2N(CCCCn3cc(-c4cccc(N)c4)nn3)C(=O)O[C@]12C [Form II, solithromycin]
Mean intrinsic dissolution rate ([1]; 0.1N Hydrochloric Acid): 8.8 mg/min/cm^2 | Mean intrinsic dissolution rate ([1]; Acetate buffer, pH 4.5): 2.7 mg/min/cm^2 | Mean intrinsic dissolution rate ([1]; Phosphate buffer, pH 6.8): 0.01 mg/min/cm^2 | hygroscopicity (Dynamic vapor sorption): non-hygroscopic
